Test results reported in EP0111809A1, “Pyrazolo(4.3-b)(1.4)oxazines, processes for their preparation and their use as medicaments” (Troponwerke GmbH & Co. KG, priority 1982, dated 1984).

How the values were obtained:
[1] = tested on: Lipoxygenase in PMN-Leukozyten; assay: Inhibition of lipoxygenase in PMN leukocytes (release of 5-HETE); assay type: cell-based; conditions: species (human or rabbit) not given
Description: Der Nachweis der lipoxygenasehemmenden Eigenschaften der neuen, erfindungsgemäßen Verbindungen erfolgt analog der Methode von Bailey et al., J. Biol. Chem. 255, 5996, 1980 und nach Blackwell and Flower, Prostaglandins 16, 417, 1978. Bei dieser Testmethode wird der Metabolismus radioaktiv markierter Arachidonsäure an gewaschenen Humanthrombozyten untersucht. Bei diesem in-vitro-Test werden die radioaktiv markierten Metaboliten aus dem Reaktionsansatz extrahiert und dünnschichtchromatographisch getrennt. Das Autoradiogramm wird mit Dünnschichtscanner ausgewertet. Bei diesen Testbedingungen werden die markierten Metaboliten von der nicht umgesetzten Arachidonsäure getrennt und sind anschließend auszuwerten. Die Verteilung der Radioaktivität auf die während der Metabolisierung gebildeten Cyclooxygenaseprodukte Thromboxan B2 (TXB2) und 12-Hydroxy-5.8.10-heptadekatriensäure (HHT) bzw. das Lipoxygenaseprodukt 12-Hydroxy-5.8.11.14-eikosa- tetraensäure (HETE) unter dem Einfluß der Inhibitoren stellt ein Maß für die Hemmung der Enzyme dar.
Analog dem o.a. Test lassen sich die lipoxygenasehemmenden Eigenschaften der neuen, erfindungsgemäßen Verbindungen auch an Leukozyten nachweisen. Die polymorphkernigen Leukozyten des Menschen und des Kaninchens metabolisieren die Arachidonsäure zu 5-Hydroxy-5.8.11.14-eikosatetraensäure (5-HETE) und Leukotrien B4 (5S, 12R-Dihydroxy-6 cis, 8.10 trans, 14 ciseikosatetraensäure). Die Hemmung der Freisetzung von 5-HETE und Leukotrien B4 aus den Leukozyten stellt ein Maß für den lipoxygenasehemmenden Effekt der neuen, erfindungsgemäßen Verbindungen dar (vgl. Tabelle A).
Der Test mit den Humanleukozyten wird nach Borgeat and Samuelsson (J.Biol. Chem. 254, 2643, 1979 und Proc. Natl. Acad. Sci. U.S.A. 76, 2148, 1979), mit Kaninchenleukozyten nach Walker and Parish (Intern. Archs. Allergy Appl. Immun. 66, 83, 1981) durchgeführt.

Carrageenanödembildung = assay: Carrageenan-induced oedema model, oral administration; assay type: in vivo; conditions: Hemmung der Carrageenanödembildung nach oraler Gabe
Description: Die erfindungsgemäßen Verbindungen sind auch in-vivo wirksam. Diese Wirkung wird durch die Messung der Hemmung der Leukozytenmigration nach an sich bekannten Methoden nachgewiesen (vgl. Higgs et al., Biochemical Pharmacology 28, 1959, (1979) und Eur. J. Pharmacol. 66,81 (1981)). Die erfindungsgemäßen Verbindungen reduzieren auch die ödembildung im Carrageenan-Entzündungsmodell, (vgl. Tabelle C) und hemmen die Metastasierung von B-16 Melanom (nach Honn, et.al. Science 212, 1981).

Hyperalgesie = assay: Randall-Selitto hyperalgesia test, oral administration; assay type: in vivo; conditions: Hemmung der Hyperalgesie nach Randall-Selitto nach oraler Gabe
Description: Die erfindungsgemäßen Verbindungen sind auch in vivo wirksam im Hyperalgesie-Test nach Randall-Selitto, vgl. Tabelle B (Randall, L.O., Selitto, J., Arch. Int. Pharmakodyn, 111, 209-219, 1957).

Minimale Konzentration (mol/l) für die Hemmung der Lipoxygenase in PMN-Leukozyten (5-HETE) [1]	Compound	DE50[mg/kg], oral (Carrageenanödembildung)	DE50[mg/kg], oral (Hyperalgesie)
5 . 10^-6 mol/l	2-Methyl-5-phenylpyrazolo[4.3-b][1.4]oxazin [Beispiel 2]	10,3 mg/kg	0,80 mg/kg
5 . 10^-6 mol/l	CN1c2[nH]ncc2O[C@@H](c2ccccc2)[C@H]1c1ccccc1 (relative stereo) [Beispiel 3, cis-7-Methyl-5,6-diphenylpyrazolo[4.3-b][1.4]oxazin]	12,7 mg/kg	1,23 mg/kg
> 10^-5 mol/l	CN1C=COc2cn[nH]c21 [Beispiel 1, 7-Methylpyrazolo[4.3-b][1.4]oxazin]	13,3 mg/kg	19,7 mg/kg
10^-5 mol/l	Cc1n[nH]c2c1OC(c1ccccc1)=C(c1ccccc1)N2C [Beispiel 4, 3,7-Dimethyl-5,6-diphenylpyrazolo[4.3-b][1.4]oxazin]	11,3 mg/kg	7,7 mg/kg
> 10^-5 mol/l	CCCc1n[nH]c2c1OC(c1ccccc1)=C(c1ccccc1)N2C [Beispiel 5, 7-Methyl-3-propyl-5,6-diphenylpyrazolo[4.3-b][1.4]oxazin]	14,2 mg/kg	–
5 . 10^-6 mol/l	CC(=O)n1nc(C)c2c1N(C)C(c1ccccc1)=C(c1ccccc1)O2 [Beispiel 6, 1-Acetyl-3,7-dimethyl-5.6-diphenylpyrazolo[4.3-b][1.4]-oxazin]	2,5 mg/kg	–

Compound	Minimale Konzentration (mol/l) für die Hemmung der Lipoxygenase in PMN-Leukozyten (5-HETE) [1]	DE50[mg/kg], oral (Carrageenanödembildung)	DE50[mg/kg], oral (Hyperalgesie)
CC(C)c1n[nH]c2c1OC(c1ccccc1)C(c1ccccc1)N2C (centres unmarked) [compound 7]	5 . 10^-6 mol/l	–	–
CN1CCOc2cn(Cc3ccc(Cl)c(Cl)c3)nc21 [compound 8]	10^-5 mol/l	–	–
CN1CC(c2ccccc2)Oc2cn(C)nc21 (centres unmarked) [compound 9]	10^-5 mol/l	–	–
CN1c2[nH]ncc2OC(c2ccccc2)C1c1ccccc1 (centres unmarked) [compound 10]	5.10^-6 mol/l	–	–
